Laboratory results published in PubChem BioAssay AID179 (DTP/NCI, 2004).
Values joined by “and” are separate entries in the source; they are usually repeats but may differ in a detail not shown here. Identical values can stand only once. Active and inactive are the calls of the source.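 The calls were made as follows: active = compounds giving half or more protection of infected cells from virus-caused growth loss, again on retest; inactive = the rest.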 Where a SMILES comes first, the peptide text is derived from it.

System: CEM cells HIV-1 protection, formazan growth assay
Assay: NCI AIDS Antiviral Assay
Details: for IC50: measured here: growth of uninfected CEM cells
Method: The ability of compounds to protect human CEM cells from HIV-1 infection is measured as a screen for new compounds capable of inhibiting the HIV virus. Five concentrations of drug were tested on uninfected and infected cells and cell growth was measured using a soluble formazan assay. […] Compounds that provided at least 50% protection were retested. Compounds that provided at least 50% protection on retest were listed as moderately active. Compounds that reproducibly provided 100% protection were listed as confirmed active. […] Note that the inability to provide protection could be due to toxicity.

Compound	outcome	EC50 [µM]	IC50
O=C1CCCCCCCCCCC1CN(Cc1ccccc1)Cc1ccccc1 (configuration not stated)	inactive		
Nc1cc2c3c(cccc3c1)C(=O)N(CCN1CCCC1)C2=O		> 200	1.07 µM
CC1(C)N=C(/C(Cl)=[N+](/[O-])C(=O)c2ccc(F)cc2)C(C)(C)N1O		> 200	51.3 µM
CC(=O)NC(CCC(=O)c1ccc(Oc2ccccc2)cc1)C(=O)O (configuration not stated)		> 200	> 200 µM
[C-]#[O+].[C-]#[O+].[C-]#[O+].[Cr].c1ccc([PH+](CC[As](c2ccccc2)c2ccccc2)CC[As](c2ccccc2)c2ccccc2)cc1	inactive		
COc1ccc(S(=O)(=O)NNS(C)(=O)=O)cc1		> 447	87.1 µM
Cc1cc(S(=O)(=O)Nc2n[nH]c(Nc3ccc4ccccc4c3)n2)c(S)cc1Cl		> 200	49 µM
COc1cc2c(c3oc(=O)cc(C)c13)C(=O)[C@H](C)[C@@H](C)O2		> 200	126 µM
N#Cc1cc2ccncc2c2ccccc12		> 33.1	24 µM
C/C1=C/C(O)C/C(C)=C\C(O)C(=O)/C=C/C2C(CC1)C2(C)C (configuration not stated)		> 200	> 200 µM
COc1ccc(CCNC(=O)/C(=C\c2ccc3c(c2)OCO3)NC(=O)c2ccccc2)cc1OC		> 200	> 200 µM
CC12CCC(C)(O1)C1C(=O)N(c3nccs3)C(=O)C12 (configuration not stated)		> 891	> 891 µM
COC(=O)/C=C(/C=C1/C(C#N)=C(N)N(c2ccc(Cl)cc2)C1(C)/C(=C/C(=O)OC)C(=O)OC)C(=O)OC (configuration not stated)		> 200	23.4 µM
OC[C@@H](O)[C@@H](O)c1cnn(-c2ccccc2)n1		> 200	> 200 µM
Cc1cc(Cl)cc2c1NC(=O)C2(O)CC(=O)c1ccc(Br)cc1 (configuration not stated)		> 91.2	70.8 µM
C[C@@H](NC(=O)CNC(=O)OC(C)(C)C)C(=O)N[C@@H](Cc1ccccc1)C(=O)OCc1ccccc1 (HELM PEPTIDE1{[CC(C)(C)OC(=O)[*:2]].G.[dA].F.[c1ccc(CO[*:1])cc1]}$$$$V2.0)		> 200	97.7 µM
c1ccc2c(c1)Sc1ccccc1S2		> 200	> 200 µM
COc1ccc2c(c1)C1=C(CC2)C(=O)OC1=O	inactive		
COC(=O)c1ccc(CSc2ccccc2C(=O)OC)cc1		> 22.9	19.1 µM
O=C1C=CC(=O)c2c1ccc1c3ccccc3n(CCCCCCCCn3c4ccccc4c4ccc5c(c43)C(=O)C=CC5=O)c21		> 100	52.5 µM
O=C(O)[C@@H]1CSC(C(O)C(O)C(O)C(O)CO)N1 (some centres not stated)		> 200	> 200 µM
CCC(C)C(N)C(=O)NCC(=O)NC(CCCN=C(N)N)C(=O)NC(CC(N)=O)C(=O)NC(CC(C)C)C(=O)NC(CC(C)C)C(=O)NC(C(=O)NC(CCC(N)=O)C(=O)NC(C(=O)NCC(=O)O)C(C)CC)C(C)O (configuration not stated) (H-IGRNLLTQIG-OH; configuration not given here)	inactive		

Compound	outcome	EC50 [µM]	IC50
O=C1OCCN1N1CCOC1=O		> 200	> 200 µM
O=C(NN(C(=O)c1ccc([N+](=O)[O-])cc1)c1ccccc1)c1ccc([N+](=O)[O-])cc1		> 200	36.3 µM
COc1cc2c(cc1OC)CCc1cc(OC)c(OC)cc1CC2		> 200	89.1 µM
O=C(O)CCC(NC(=O)c1ccc(CNc2nc3cc(C(F)(F)F)ccc3nc2C(=O)O)cc1)C(=O)O (configuration not stated)		> 200	> 200 µM
O=C1c2ccncc2C(=O)c2c(O)ccc(O)c21		> 6.03	3.24 µM
CC(=O)C(N=Nc1ccc(S(=O)(=O)NC2ONC(C)C2C)cc1)C(=O)Nc1ccc(Cl)cc1 (configuration not stated)		> 200	36.3 µM
CC1(CO)COC(=O)C(C)(C2(C)NC(C)(CO)COC2=O)N1 (configuration not stated)		> 794	28.2 µM
Cc1c(C(=O)O)oc2ccc([N+](=O)[O-])cc12	inactive		
O=[N+]([O-])c1ccccc1S(=O)(=O)Cc1ccccc1		> 245	> 245 µM
CCOc1ccccc1NC(=O)C(=O)CC(=O)c1c(C)n([O-])c2ccccc2[n+]1=O		> 110	> 110 µM
C[C@@]12C[C@@H](c3ccccc3O1)N1Cc3ccccc3CSC1=N2		> 200	49 µM
CCCCNC=C1C(=O)Nc2ccccc2NC1=O		> 200	> 200 µM
COC(=O)/C([Se]c1c(C)cc(C)cc1C)=C(\[Se]c1c(C)cc(C)cc1C)C(=O)OC	inactive		
Nc1nc(CC2(O)CCCCC2)cc(-c2ccccc2)n1		> 1.95	> 1.95 µM
Nc1c(O)c(S(=O)(=O)O)c(O)c2c1C(=O)c1ccccc1C2=O		200	234 µM
CCCCCCCCCCCCS(=O)(=O)O	inactive		
CCCCCC[N+]1(C)CC2C3C=CC(C3)C2C1 (configuration not stated)		> 245	> 100 µM
CCOC(=O)c1c(N)[nH]c(SSc2[nH]c(N)c(C(=O)OCC)c2C(=O)OCC)c1C(=O)OCC		> 200	0.417 µM
O=C(Nc1ccccc1)c1ccccc1[Se][Se]c1ccccc1C(=O)Nc1ccccc1		5.37	9.55 µM
CNC1c2ccccc2C(=O)c2cc3c(cc21)OCCOCCOCCOCCO3 (configuration not stated)		> 200	36.3 µM
CC(=O)Nc1c(I)c(C(=O)O)c(I)c(N(C)C(C)=O)c1I		> 200	> 200 µM
O=C1[C@H]2ON(c3ccccc3)C(c3ccco3)[C@H]2C(=O)N1c1ccc(Cc2ccc(N3C(=O)[C@@H]4ON(c5ccccc5)C(c5ccco5)[C@@H]4C3=O)cc2)cc1 (some centres not stated)		> 7.08	> 7.08 µM

Compound	outcome	EC50 [µM]	IC50
Cc1ncc([N+](=O)[O-])n1CCO		> 200	> 200 µM
C=C[C@@]1(O)CCCC2=C(C(=O)OCC)CC[C@]21C	inactive		
O=NNc1ccc(-c2ccccc2)cn1		> 200	43.7 µM
O=[N+]([O-])c1ccc(N/N=C/CC(O)(C(F)(F)F)C(F)(F)F)c([N+](=O)[O-])c1		> 200	7.08 µM
O=C(c1ccccc1)C(c1ccccc1)C1(O)C(=O)Nc2ccc(Br)cc21 (configuration not stated)		> 85.1	> 85.1 µM
CC(CC(C)[C@H]1CCC2[C@H]3C(CC(=O)[C@@]21C)[C@@]1(C)CCC(O)C[C@H]1C[C@@H]3O)C(=O)O (some centres not stated)		> 200	162 µM
CCOC(=O)/C(C1=N[C@H](C(=O)OCC)CS1)=C(\C)O		> 631	> 631 µM
CCCCCCCN=c1ssc(=O)n1CCCCCCC		> 200	8.91 µM
NC1=CN(CCCO)C2=N/C(=C\c3ccco3)C(=O)N12	inactive		
NC(N)=NCCCC(N)C(=O)O (configuration not stated)		> 200	> 200 µM
COc1ccc(-c2coc3cc(O)cc(O)c3c2=O)cc1		> 200	12.6 µM
COC(=O)CCCCC=C(c1cc(Cl)c(OC)c(C(=O)OC)c1)c1cc(Cl)c(OC)c(C(=O)OC)c1		6.76	60.3 µM
NC(=O)O/N=C/c1ccccn1		> 200	> 200 µM
O=c1cc(-c2ccccc2)ss1		> 200	105 µM
CCCCC1C=Cn2c(=O)oc3c(OC(C)C)c(OC(C)C)c(O)c1c32 (configuration not stated)		> 200	13.2 µM
CC1=C(C)CS(=O)(=O)N(c2ccccc2)C1		> 200	> 200 µM
COc1c(Sc2ccccc2)cc(Sc2ccccc2)c2cccnc12	inactive		
COc1ccc(C2C(C)C(=O)C(C)C(c3ccc(OC)cc3)N2N=O)cc1 (configuration not stated)		> 19.5	> 19.5 µM
COc1cc2ccc(CC(N)=O)cc2cc1OC	inactive		
O=c1c2ncn(C3CCCO3)c2n(-c2ccccc2)c(=S)n1-c1ccccc1 (configuration not stated)		> 200	> 200 µM
CON(C)C(=O)CCCO		> 1700	> 1700 µM
CNc1ccccc1S(=O)(=O)c1ccccc1Cl		> 63.1	40.7 µM

Compound	outcome	EC50 [µM]	IC50
COC(=O)[C@H]1C2CC[C@@H]3C45C[C@@H](c6ccoc6)O[C@@H]4O[C@@H](O2)C31CCC5C (some centres not stated)		> 95.5	> 95.5 µM
CC1(C)CNC(=O)C2=C(O1)C(=O)OC2		> 1260	> 1260 µM
O=C(O)c1cc(Cc2cc(C(=O)O)c(O)c3ccccc23)c2ccccc2c1O		> 0.813	> 0.813 µM
Nc1nnc(-c2ccccc2S)o1		> 63.1	26.9 µM
CCOc1cc2c(cc1OC)c[n+](C)c1c3cc(OC)c(OC)cc3ccc21	inactive		
CC(=O)Nc1cccc(C[P+](c2ccccc2)(c2ccccc2)c2ccccc2)c1		> 200	91.2 µM
CN(C)CCOC1(Cc2ccc(Cl)cc2Cl)CCC(C(C)(C)C)CC1 (configuration not stated)		> 200	2.14 µM and 3.72 µM
S=C1CSc2c(ccc3ccccc23)N1		> 200	141 µM
C=C1CC2(CCS(=O)(=O)c3ccccc32)OC1=O (configuration not stated)		> 355	1.51 µM
O=C1NC(N2CCOCC2)=N/C1=C\c1ccccc1O		> 200	> 200 µM
CCCNC(=S)NNC(=O)CSc1nc(-c2ccccc2)c(-c2ccccc2)[nH]1		> 117	57.5 µM
O=C(O)c1ccc2c(c1)CC1(C2)Cc2ccccc2C1=O (configuration not stated)		> 200	> 200 µM
CCCCCc1cc(OC(=O)c2c(O)cc(OC)cc2CCCCC)cc(O)c1C(=O)O		> 295	29.5 µM
CC(=O)OC(C(=O)C(O)C(C)C)C(C)C (configuration not stated)		> 832	> 832 µM
C[Si](C)(C)O[C@@H]1CCCC1N (some centres not stated)	inactive		
CC1CC(=O)N2CCCNC2=C1C#N (configuration not stated)		> 200	> 200 µM
CC(C(=O)NCNC(=O)c1ccccc1)C(=O)NCc1ccccc1 (configuration not stated)	inactive		
O=C(Cn1c2ccc(Br)cc2c2nc3ccccc3nc21)NCc1ccccc1		> 100	> 100 µM
Cc1ccccc1-c1nc(/C=C2\C(=O)C=Cc3ccccc32)c(O)o1		> 200	> 200 µM
COC(CNC(=O)CNC(=O)c1ccc(C(F)(F)F)cc1)OC	inactive		
